The results in this text go back to patent US20240059689A1, “PURINE DERIVATIVES AS ANTICANCER AGENTS” (Tango Therapeutics, Inc., priority 2021, published 2024).

Each structure is given as a SMILES string.

The subject of one experiment is monoubiquitinated PCNA. The experiment is described as follows: AlphaLISA assay measuring monoubiquitinated PCNA in MDA-MB-436. In kind it is cell-based. Particulars: Homo sapiens, MDA-MB-436, monoubiquitinated PCNA, read-out: Alpha Lisa IC50. From the text: Table 1 also indicates IC50 values for exemplary compounds in an AlphaLISA assay measuring monoubiquitinated PCNA in a BRCA1 mutant cell line (MDA-MB-436; column 7).

A further experiment has as its system MDA-MB-436. The experiment is described as follows: Viability assay, BRCA1 mutant cell line MDA-MB-436. In kind it is cell-based. Particulars: Homo sapiens, MDA-MB-436, viability, BRCA1 mutant MDA-MB-436; read-out: MDA-MB-436 rel IC50. From the text: (§1) Table 1 also indicates IC50 values in a viability assay for a non-isogenic pair of BRCA1 mutant (column 5-MDA-MB-436) and BRCA1 WT (column 6—HCC1954) cell lines. These values indicate the effect of treatment with compound on cell survival.

Another experiment has as its target USP1-UAF1 (Homo sapiens, UniProt O94782). The experiment is described as follows: Ubiquitin Rhodamine assay of USP1-UAF1 activity. In kind it is biochemical. Here is the method: Certain compounds of the disclosure were assessed for USP1-UAF1 activity in a Ubiquitin Rhodamine assay as described in Biology Example 1.
The next experiment has as its system HCC1954. The experiment in a line: Viability assay, BRCA1 WT cell line HCC1954. In kind it is cell-based. Particulars: Homo sapiens, HCC1954, viability, read-out: HCC1954 rel IC50.
Description: as §1

USP1-UAF1, sequence (O94782 whole entry): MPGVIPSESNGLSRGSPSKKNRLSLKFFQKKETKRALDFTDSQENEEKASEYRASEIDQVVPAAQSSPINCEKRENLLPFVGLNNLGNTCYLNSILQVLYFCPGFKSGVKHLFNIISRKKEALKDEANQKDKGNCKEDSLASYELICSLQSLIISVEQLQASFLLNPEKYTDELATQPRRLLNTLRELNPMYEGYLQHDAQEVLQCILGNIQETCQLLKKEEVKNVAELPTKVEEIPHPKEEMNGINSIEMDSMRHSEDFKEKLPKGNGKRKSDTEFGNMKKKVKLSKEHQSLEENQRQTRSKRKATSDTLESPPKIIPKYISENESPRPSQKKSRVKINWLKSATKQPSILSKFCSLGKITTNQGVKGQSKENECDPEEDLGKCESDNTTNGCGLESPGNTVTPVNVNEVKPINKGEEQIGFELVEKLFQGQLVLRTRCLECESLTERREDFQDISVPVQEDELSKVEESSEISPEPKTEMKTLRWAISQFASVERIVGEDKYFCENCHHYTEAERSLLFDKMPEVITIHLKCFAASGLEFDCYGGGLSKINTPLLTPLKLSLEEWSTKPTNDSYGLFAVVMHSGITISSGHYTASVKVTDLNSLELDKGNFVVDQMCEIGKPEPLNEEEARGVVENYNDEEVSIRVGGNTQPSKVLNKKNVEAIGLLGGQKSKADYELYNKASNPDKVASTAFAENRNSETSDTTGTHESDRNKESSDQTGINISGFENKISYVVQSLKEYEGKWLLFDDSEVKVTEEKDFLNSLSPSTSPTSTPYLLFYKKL
USP1-UAF1, sequence (Q8TAF3 whole entry partner): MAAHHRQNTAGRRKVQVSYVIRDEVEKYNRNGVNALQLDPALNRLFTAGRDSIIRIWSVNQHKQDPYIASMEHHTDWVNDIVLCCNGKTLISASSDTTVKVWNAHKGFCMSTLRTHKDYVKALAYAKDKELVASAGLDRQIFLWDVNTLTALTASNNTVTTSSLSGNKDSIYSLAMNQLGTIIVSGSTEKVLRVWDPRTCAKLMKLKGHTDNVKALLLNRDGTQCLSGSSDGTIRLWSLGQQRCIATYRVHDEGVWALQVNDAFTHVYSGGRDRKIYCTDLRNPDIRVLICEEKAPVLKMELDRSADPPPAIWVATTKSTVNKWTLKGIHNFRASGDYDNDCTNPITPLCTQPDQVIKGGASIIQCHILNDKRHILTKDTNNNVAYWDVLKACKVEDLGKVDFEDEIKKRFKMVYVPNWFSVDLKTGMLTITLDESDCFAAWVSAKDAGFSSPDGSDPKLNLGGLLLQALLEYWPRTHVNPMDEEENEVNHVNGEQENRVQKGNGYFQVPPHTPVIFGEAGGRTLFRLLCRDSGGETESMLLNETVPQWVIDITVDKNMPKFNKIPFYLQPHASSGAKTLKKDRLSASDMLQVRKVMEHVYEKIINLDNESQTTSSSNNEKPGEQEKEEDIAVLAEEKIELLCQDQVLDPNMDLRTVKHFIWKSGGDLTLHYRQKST

In the case of `COc1ncnc(C2CC2)c1-c1ncc2c(n1)n(Cc1ccc(-c3nc(C(F)(F)F)cn3C)cc1)c(=N)n2CC(F)(F)F` [Example T-095, 2-(4-cyclopropyl-6-methoxy-pyrimidin-5-yl)-9-[[4-[1-methyl-4-(trifluoromethyl)imidazol-2-yl]phenyl]methyl]-7-(2,2,2-trifluoroethyl)purin-8-imine], the IC50 with monoubiquitinated PCNA was below 100 nM; with MDA-MB-436, below 100 nM; against USP1-UAF1, 30 to 100 nM; in the experiment on HCC1954 it was at least 10000 nM.
For `COc1nc(C)nc(C2CC2)c1-c1ncc2c(n1)n(Cc1ccc(-c3nc(C(F)(F)F)cn3C)cc1)c(=N)n2CC(F)(F)F` [Example T-102, 2-(4-cyclopropyl-6-methoxy-2-methyl-pyrimidin-5-yl)-9-[[4-[1-methyl-4-(trifluoromethyl)imidazol-2-yl]phenyl]methyl]-7-(2,2,2-trifluoroethyl)purin-8-imine], the IC50 in the experiment with monoubiquitinated PCNA is 250 to 10000 nM; in the experiment on MDA-MB-436, 100 to 250 nM; against USP1-UAF1, 100 to 10000 nM; with HCC1954, at least 10000 nM.
As for `Cn1cc(C(F)(F)F)nc1-c1ccc(Cn2c(=N)n(C)c3cnc(-c4cccnc4OC(F)F)nc32)cc1` [Example T-082, 2-[2-(difluoromethoxy)-3-pyridyl]-7-methyl-9-[[4-[1-methyl-4-(trifluoromethyl)imidazol-2-yl]phenyl]methyl]purin-8-imine], the IC50 in the experiment with monoubiquitinated PCNA was below 100 nM; in the experiment on MDA-MB-436, below 100 nM; against USP1-UAF1 it was below 30 nM; in the experiment with HCC1954, at least 10000 nM.
Take `Cn1cc(C(F)(F)F)nc1-c1ccc(Cn2c(=N)n(C)c3cnc(-c4c(F)cccc4OC(F)F)nc32)cc1` [Example T-036, 2-[2-(difluoromethoxy)-6-fluoro-phenyl]-7-methyl-9-[[4-[1-methyl-4-(trifluoromethyl)imidazol-2-yl]phenyl]methyl]purin-8-imine]: the IC50 in the experiment on monoubiquitinated PCNA is below 100 nM; in the experiment on MDA-MB-436, below 100 nM; against USP1-UAF1, below 30 nM; in the experiment on HCC1954 it was at least 10000 nM.
Take `COc1nccc(F)c1-c1ncc2c(n1)n(Cc1ccc(-c3nc(C(F)(F)F)cn3C)cc1)c(=N)n2C` [Example T-065]: the IC50 is 100 to 250 nM in the experiment on monoubiquitinated PCNA, 100 to 250 nM with MDA-MB-436, 30 to 100 nM at USP1-UAF1 and at least 10000 nM with HCC1954.
Take `CC(C)c1cc(C#N)ccc1-c1ncc2c(n1)n(Cc1ccc(-c3nc(C(F)(F)F)cn3C)cc1)c(=N)n2C` [Example T-071, 4-[8-imino-7-methyl-9-[[4-[1-methyl-4-(trifluoromethyl)imidazol-2-yl]phenyl]methyl]purin-2-yl]-3-isopropyl-benzonitrile]: the IC50 with monoubiquitinated PCNA is below 100 nM; with MDA-MB-436 it was 100 to 250 nM; on USP1-UAF1, 30 to 100 nM; in the experiment with HCC1954, 250 to 10000 nM.
The like results for `Cn1cc(Cl)nc1-c1ccc(Cn2c(=N)n(C)c3cnc(-c4ccccc4Cl)nc32)cc1` [Example A-11, 9-(4-(4-chloro-1-methyl-1H-imidazol-2-yl)benzyl)-2-(2-chlorophenyl)-7-methyl-7,9-dihydro-8H-purin-8-imine] were, in that order, 250 to 10000 nM, 250 to 10000 nM, 100 to 10000 nM and at least 10000 nM.
For `Cc1nc(-c2ccccc2C(C)C)nc2c1n(C)c(=N)n2Cc1ccc(-c2nc(Cl)cn2C)cc1` [Example A-38, 9-(4-(4-chloro-1-methyl-1H-imidazol-2-yl)benzyl)-2-(2-isopropylphenyl)-6,7-dimethyl-7,9-dihydro-8H-purin-8-imine], the IC50 in the experiment on monoubiquitinated PCNA was below 100 nM; with MDA-MB-436, below 100 nM; against USP1-UAF1, below 30 nM; in the experiment on HCC1954 it was 250 to 10000 nM.
As to `COc1ncnc(C2CC2)c1-c1ncc2c(n1)n(Cc1cc(F)c(-n3nc(C(F)(F)F)cc3OC)c(F)c1)c(=N)n2CC(F)(F)F` [Example T-127], the IC50 in the experiment on monoubiquitinated PCNA is below 100 nM; in the experiment with MDA-MB-436, below 100 nM; against USP1-UAF1, 30 to 100 nM; with HCC1954, at least 10000 nM.
Turning to `CC(C)c1ncccc1-c1ncc2c(n1)n(Cc1ccc(-c3nc(C(F)(F)F)cn3C)cc1)c(=N)n2C` [Example T-076, 2-(2-isopropyl-3-pyridyl)-7-methyl-9-[[4-[1-methyl-4-(trifluoromethyl)imidazol-2-yl]phenyl]methyl]purin-8-imine], the IC50 is 100 to 250 nM in the experiment on monoubiquitinated PCNA, 250 to 10000 nM in the experiment on MDA-MB-436, 30 to 100 nM against USP1-UAF1 and at least 10000 nM in the experiment with HCC1954.
Taken in the same sequence, the figures for `CC(C)n1cc(C(F)(F)F)nc1-c1ccc(Cn2c(=N)n(C)c3cnc(-c4cccnc4OCC(F)(F)F)nc32)cc1` [Example T-031] were 250 to 10000 nM, 250 to 10000 nM, 100 to 10000 nM and at least 10000 nM.
Turning to `Cn1cc(C(F)(F)F)nc1-c1ccc(Cn2c(=N)n(C)c3cnc(-c4ccccc4[C@@H](O)C(F)(F)F)nc32)cc1` (single isomer, unassigned) [Example T-148, 2,2,2-trifluoro-[2-[8-imino-7-methyl-9-[[4-[I-methyl-4-(trifluoromethyl)imidazol-2-yl]phenyl]methyl]purin-2-yl]phenyl]ethanol], the half-maximal inhibitory concentration (IC50) in the experiment on monoubiquitinated PCNA is 100 to 250 nM; in the experiment on MDA-MB-436, 250 to 10000 nM; at USP1-UAF1, 100 to 10000 nM; in the experiment on HCC1954, at least 10000 nM.
The like results for `Cc1cc(Cl)nn1-c1ccc(Cn2c(=N)n(C)c3cnc(-c4ccccc4C(C)C)nc32)cc1` [Example A-21, 9-(4-(3-chloro-5-methyl-1H-pyrazol-1-yl)benzyl)-2-(2-isopropylphenyl)-7-methyl-7,9-dihydro-8H-purin-8-imine] were, in that order, below 100 nM, below 100 nM, below 30 nM and 250 to 10000 nM.
Taken in the same sequence, the figures for `C=C(C)c1c(F)cccc1-c1nc(C)c2c(n1)n(Cc1ccc(-c3nc(Cl)cn3C)cc1)c(=N)n2C` [Example A-30, 9-(4-(4-chloro-1-methyl-1H-imidazol-2-yl)benzyl)-2-(3-fluoro-2-(prop-1-en-2-yl)phenyl)-6,7-dimethyl-7,9-dihydro-8H-purin-8-imine] were below 100 nM, below 100 nM, below 30 nM and 250 to 10000 nM.
Turning to `COc1ncnc(C(F)(F)F)c1-c1ncc2c(n1)n(Cc1ccc(-c3nc(C(F)(F)F)cn3C)cc1)c(=N)n2CC(F)(F)F` [Example T-144, 2-[4-methoxy-6-(trifluoromethyl)pyrimidin-5-yl]-9-[[4-[1-methyl-4-(trifluoromethyl)imidazol-2-yl]phenyl]methyl]-7-(2,2,2-trifluoroethyl)purin-8-imine], the IC50 in the experiment with monoubiquitinated PCNA was 100 to 250 nM; with MDA-MB-436, 100 to 250 nM; against USP1-UAF1, 30 to 100 nM; in the experiment on HCC1954, at least 10000 nM.
For `COc1ncccc1-c1ncc2c(n1)n(Cc1ccc(-c3nc(C(F)(F)F)cn3CCF)cc1)c(=N)n2C` [Example T-093], the IC50 in the experiment on monoubiquitinated PCNA is 250 to 10000 nM; with MDA-MB-436 it was 250 to 10000 nM; against USP1-UAF1 it was 100 to 10000 nM; in the experiment on HCC1954 it was at least 10000 nM.
For the compound `Cc1ccc(C(C)C)c(-c2ncc3c(n2)n(Cc2ccc(-c4nc(C(F)(F)F)cn4C)cc2)c(=N)n3C)c1` [Example T-018, 2-(2-isopropyl-5-methyl-phenyl)-7-methyl-9-[[4-[1-methyl-4-(trifluoromethyl)imidazol-2-yl]phenyl]methyl]purin-8-imine], the IC50 with monoubiquitinated PCNA was in the range of 250 to 10000 nM; in the experiment with MDA-MB-436 it was 250 to 10000 nM; against USP1-UAF1, 30 to 100 nM; in the experiment on HCC1954, 250 to 10000 nM.
As to `Cn1cc(C(F)(F)F)nc1-c1ccc(Cn2c(=N)n(C)c3cnc(-c4cccc5c4OC(F)(F)O5)nc32)cc1` [Example T-011, 2-(2,2-difluoro-1,3-benzodioxol-4-yl)-7-methyl-9-[[4-[1-methyl-4-(trifluoromethyl)imidazol-2-yl]phenyl]methyl]purin-8-imine], the IC50 in the experiment on monoubiquitinated PCNA was in the range of 250 to 10000 nM; in the experiment with MDA-MB-436, 250 to 10000 nM; at USP1-UAF1, 30 to 100 nM; in the experiment on HCC1954, 250 to 10000 nM.
Take `Cn1cc(C(F)(F)F)nc1-c1ccc(Cn2c(=N)n(CC(F)F)c3cnc(-c4ccccc4C(F)(F)F)nc32)cc1` [Example T-049]: the IC50 was 250 to 10000 nM in the experiment on monoubiquitinated PCNA, 100 to 250 nM in the experiment with MDA-MB-436, 30 to 100 nM against USP1-UAF1 and at least 10000 nM with HCC1954.
As for `COc1ncnc(C2CC2)c1-c1ncc2c(n1)n(Cc1ccc(-c3nc(C(F)(F)F)cn3C)c(F)c1)c(=N)n2CC(F)(F)F` [Example T-118, 2-(4-cyclopropyl-6-methoxypyrimidin-5-yl)-9-(3-fluoro-4-(1-methyl-4-(trifluoromethyl)-1H-imidazol-2-yl)benzyl)-7-(2,2,2-trifluoroethyl)-7H-purin-8(9H)-imine], the IC50 is below 100 nM in the experiment with monoubiquitinated PCNA, below 100 nM with MDA-MB-436, 100 to 10000 nM against USP1-UAF1 and at least 10000 nM with HCC1954.
Turning to `Cc1ccc(-c2ncc3c(n2)n(Cc2ccc(-c4nc(C(F)(F)F)cn4C)cc2)c(=N)n3C)c(C(C)C)c1` [Example T-070, 2-(2-isopropyl-4-methyl-phenyl)-7-methyl-9-[[4-[1-methyl-4-(trifluoromethyl)imidazol-2-yl]phenyl]methyl]purin-8-imine], the IC50 with monoubiquitinated PCNA was in the range of 250 to 10000 nM; in the experiment with MDA-MB-436, 250 to 10000 nM; against USP1-UAF1 it was 30 to 100 nM; with HCC1954 it was 250 to 10000 nM.
In the case of `Cc1cc(-c2nc(C(F)(F)F)cn2C)ccc1Cn1c(=N)n(C)c2cnc(-c3ccccc3C(C)C)nc21` [Example T-040], the IC50 in the experiment with monoubiquitinated PCNA is below 100 nM; in the experiment on MDA-MB-436, below 100 nM; on USP1-UAF1 it was 30 to 100 nM; with HCC1954, at least 10000 nM.
